The test system of data set [1] is Candida albicans. Description: MIC against fungi (Candida albicans). It counts as cell-based.
Data set [2] relates to methicillin-resistant Staphylococcus aureus (MRSA). Description: MIC against methicillin-resistant Staphylococcus aureus. Type of data set: cell-based.
Data set [3] concerns microbes. Description: Rapid bactericidal test (shaking method, ASTM E2149 13a). Type of data set: cell-based. Particulars: Ala12 diluted to 10 mg/mL with phosphate buffer, contact time 10 mins. As to the method:
The Ala12 was diluted to 10 mg/mL with phosphate buffer. The shaking method (see the ASTM standard E2149 13a 2015) was used to detect their antibacterial activity, wherein the PBS group was used as a blank control. The contact time of bacteria treated with Ala12 is 10 mins.

A short description of data set [4]: Skin irritation according to ISO 10993-10:2010. Particulars: concentration as high as 3.9 mg/mL.
Data set [5] can be described thus: Skin sensitization according to ISO 10993-10:2010. Particulars: concentration as high as 3.9 mg/mL.
Data set [6] is described as follows: Dynamic light scattering (DLS) and zeta-potential of self-assembled nanoparticles. It counts as physicochemical. The source says: The dynamic light scattering (DLS) and zeta-potential indicate that […] assembles into nanoparticles with an average size of around 50-200 nm (FIG. 5) and the surface potential of the generated nanoparticle can be +2.15 mV, which means the nanoparticle is positive charged and the hydrophilic -NH2 groups are probably distributed on the outer surfaces.

On to `CCCCCCCCCCCCOC(=O)C(C)N` (stereo not shown) [Ala12], for which the MIC in data set [1] and in data set [2] was 390 μg/m in each case. In addition, the “time within which the amino ester kills microbes” value in data set [3] is not above 10 min. Further, in data set [4], the skin irritation result was “completely free”. Also, the skin sensitization result in data set [5] is on record as “completely free”. In data set [6], the “surface potential of the generated nanoparticle (zeta-potential)” value is on record as “+2.15 mV”. In data set [6] (DLS, FIG. 5), the “average size of nanoparticles” value is reported as 50-200 nm.

The values are drawn from patent US20250170089A1, “ANTIMICROBIAL AMINO ESTERS” (THE HONG KONG POLYTECHNIC UNIVERSITY, priority 2023, published 2025).
